Source: patent publication US7345158B2, “Actin related cytoskeletal protein “LACS”” (Anges MG, Inc., priority 2002, dated 2008)
Positions of bridges follow the written chain, without caps; N, C: chain ends. No end group written: not given here.

Legend:
[1] = tested on: LACS mRNA expression in cardiac tissues; test: LACS mRNA expression in cardiac tissues of L-NAME-administered WKY rats (Northern blotting); type: in vivo, rat; settings: male WKY rats, oral L-NAME 100 mg/L
Procedure: RNAs were extracted from the hearts of a male WKY rat group that has been subjected to a one-week oral administration of L-NAME (100 mg/L), and from the hearts of a control group without L-NAME administration. […] As a result, a novel LACS (L-NAME related actin cytoskeletal protein) gene was successfully isolated. […] Furthermore, mRNA expression in tissues other than the heart was also analyzed by Northern blotting. […] Particularly with the heart, the expression of LACS mRNA was confirmed in the myocardial cells.

[2] = tested on: LACS expression in cultured myocardial cells; test: LACS protein expression in cultured myocardial cells under hypertrophic agonist stimulation; type: cell-based, rat; settings: for LACS protein expression on hypertrophic agonist stimulation: primary cultured neonatal rat myocardial cells
Procedure: Primary cultures of myocardial cells isolated from neonatal rats (one- to three-day old) using trypsin and collagenase were prepared. For the first 24 to 48 hours, the cells were cultured in a serum-containing medium, and then for another 24 hours in a serum-free medium.
Myocardial cells cultured by the same method in Example 4 were used. First, cells were stimulated with the representative hypertrophic agonists, AngII, phenylephrine, and Endothelin-1.
LACS expression which increases upon phenylephrine stimulation was suppressed by the simultaneous administration of 10 μM of Y27632 (ROCK inhibitor; Calbiochem). […] Rho is a low-molecular-weight GTP-binding protein (small G protein) involved in the contraction of smooth muscles, and regulation of cytokinesis, cell motility, and cytomorphology, via reorganization of actin filaments.

[3] = tested on: LACS mRNA expression in the heart; test: LACS mRNA expression in the hearts of AngII infusion rats; type: in vivo, rat; settings: osmotic pump 0.7 mg/kg/day
Procedure: Cardiac tissues derived from AngII infusion rats (osmotic pump: 0.7 mg/kg/day), and SHRs of 4 weeks and 24 weeks, were used. ATIR antagonist (ARB) and hydrazine (Hyd) were used as antihypertensive agents. Each of the antihypertensive agents was used at an amount sufficient for lowering the blood pressure (10 mg/kg/day for ARB; 12 mg/kg/day for Hyd).

Molecule | LACS protein expression on hypertrophic agonist stimulation [2] | also measured
COC(=O)[C@@H](N)CCCN=C(N)N[N+](=O)[O-].Cl [L-NAME, N^G-Nitro-L-arginine methyl ester, hydrochloride] |  | LACS mRNA expression level in cardiac tissues after L-NAME administration [1]: reaches its peak one to three days after L-NAME administration
C[C@@H](N)[C@H]1CC[C@H](C(=O)Nc2ccncc2)CC1 [Y27632] |  | Effect on the LACS expression increased by phenylephrine stimulation ([2]; cultured myocardial cells, simultaneous administration of 10 μM): suppressed
Endothelin-1 (CSCSSLMDKECVYFCHLDIIW; disulfide 1-15, 3-11; ends not checked; UniProt P05305 53-73, looked up) [representative hypertrophic agonist] | found to increase | 
CNC[C@H](O)c1cccc(O)c1 [phenylephrine] | found to increase | 
angiotensin II (DRVYIHPF; Angiotensin-2; UniProt P01019 25-32, looked up) [AngII, representative hypertrophic agonist] | found to increase | LACS expression in the heart after AngII administration [3]: increased LACS expression after the third day
